# Assay results published in patent publication US6506552B2, “Amino acid-trehalose composition” (Meiji Dairies Corporation, priority 1998, dated 2003).
# Experiment: Forced swimming of mice in a running water pool after oral administration; blood lactic acid, blood sugar and free fatty acid levels
# Format: in vivo, mice (male; ddY)
# Description: This experiment was carried out according to the method disclosed in Jpn. J. Phys. Fitness Sports Med., 1995, 44:225-238. More specifically, mice (male; ddY) (6-week-old; 5 animals per group) were fasted at room temperature for 16 hours, followed by oral administration of a 1.8% by weight aqueous solution containing the composition VAAM or HVAAM as set forth in Table 1 or trehalose; an aqueous solution containing 1.8% by weight of VAAM and 2% by weight of trehalose; or an aqueous solution containing 1.8% by weight of VAAM analogue as set forth in Table 1 and 2% by weight of trehalose in an amount of 37.5 μl/g body weight and thereafter giving the mice a rest at room temperature for 30 minutes. Then the mice were forced to swim in a running water pool (a water tank having a diameter of 32 cm and a depth of 30 cm, which was filled with water maintained at 35° C. and in which the water was circulated at a rate of 8 m/min using a circulator) for 30 minutes. After forcing the mice to swim, they were inspected for the lactic acid level in the blood, the blood sugar (glucose) level and the free fatty acid level in the blood.
# The lactic acid level in the blood was determined using a clinical reagent available from Sigma Company, by measuring absorbance at 340 nm due to NADH, each molecule of which was formed when lactic acid was converted into pyruvic acid because of the action of lactic acid dehydrogenase. The free fatty acid level in the serum was determined by centrifuging the collected blood and then quantitatively analyzing the fatty acids present in the supernatant. More specifically, the hydrogen peroxide formed by the action of acyl-CoA synthetic enzyme and acyl-CoA oxidase was reacted with a peroxidase, followed by determination of the absorbance at 550 nm due to the stained 3-methyl-N-ethyl-N-(2-hydroxyethyl)aniline and 4-aminoantipyrine to thus determine the free fatty acid level.
structure (smiles),measurement,setting,value
"OC[C@H]1O[C@H](O[C@H]2O[C@H](CO)[C@@H](O)[C@H](O)[C@H]2O)[C@H](O)[C@@H](O)[C@@H]1O [Tre, α, α-trehalose]",Blood Sugar Level,"blood glucose, mice fasted 16 h, oral 37.5 μl/g body weight, 30 min rest, after 30 min forced swimming",83.14 mg/dL
same,Lactic Acid Level,"blood, mice fasted 16 h, oral 37.5 μl/g body weight, 30 min rest, after 30 min forced swimming",46.69 mg/dL
same,NEFA,"free fatty acid in serum, mice fasted 16 h, oral 37.5 μl/g body weight, 30 min rest, after 30 min forced swimming",0.97 mEq/l
same,free fatty acid level in the blood compared with the group to which 1.8% VAAM was administered,"mice, after 30 min swimming, FIG. 3, p<0.05",significantly higher
same,lactic acid level in the blood compared with the group to which VAAM was administered,"mice, after load of swimming over 30 minutes, FIG. 1",did not show any significant difference
